Data reported in patent publication US20250092029A1 (THE WISTAR INSTITUTE OF ANATOMY AND BIOLOGY, priority 2022, published 2025).
Where two headings read alike, the source gives them in different places.

Columns and labels:
[1] = Metabolic stability in mouse liver microsomes
cathepsin B = cathepsin B (Homo sapiens (Human), UniProt P07858); experiment: Cathepsin B enzymatic assay; type: biochemical
Protocol: Cathepsin B enzymatic assay Assays contained 0.6 nM cathepsin B (RD systems: 953-CY-010), 25 uM Z-LR-AMC, 100 nL of test compound in 100% DMSO, in at total of 10 uL of 50 mM MES, pH 5.0, 150 mM NaCl, 0.05% CHAPS, 5 mM DTT in black low volume 384-well plates. The production of AMC was followed at 5 min intervals at 355 nm excitation, 460 nm emission in an Envision microplate reader (PerkinElmer). Reaction rates were determined by linear regression of the resulting progress curves. […] Nonlinear regression fits of the data to a one-site dose response curve were performed using XLFit (IDBS).

cathepsin L = cathepsin L (Homo sapiens (Human), UniProt P07711); experiment: Cathepsin L enzymatic assay; type: biochemical
Protocol: Cathepsin L enzymatic assay Assays contained 25 pM cathepsin L (RD systems: 952-CY-010), 5 uM LR-AMC, 100 nL of test compound in 100% DMSO, in at total of 10 uL of 20 mM KPO4, pH 6.0, 150 mM NaCl, 0.005% Tween20, 5 mM DTT in black low volume 384-well plates. The production of AMC was followed at 5 min intervals at 355 nm excitation, 460 nm emission in an Envision microplate reader (PerkinElmer). Reaction rates were determined by linear regression of the resulting progress curves. […] Nonlinear regression fits of the data to a one-site dose response curve were performed using XLFit (IDBS).

SARS-CoV-2 Mpro = SARS-CoV-2 Mpro (Severe acute respiratory syndrome coronavirus 2 (2019-nCoV) (SARS-CoV-2), UniProt P0DTD1); experiment: biochemical; type: biochemical
thrombin = thrombin (Homo sapiens (Human), UniProt P00734); experiment: Thrombin enzymatic assay; type: biochemical
Protocol: Thrombin enzymatic assay Assays contained 25 pM thrombin (RD systems: 1473-SE-010), 25 uM BOC—PVR-AMC, 100 nL of test compound in 100% DMSO, in at total of 10 μL of 50 mM Tris, pH 7.0, 100 mM NaCl, 10 mM CaCl2, 0.005% Tween20 in black low volume 384-well plates. The production of AMC was followed at 5 min intervals at 355 nm excitation, 460 nm emission in an Envision microplate reader (PerkinElmer). Reaction rates were determined by linear regression of the resulting progress curves. […] Nonlinear regression fits of the data to a one-site dose response curve were performed using XLFit (IDBS).

[2] = test system: SARS-CoV-2 (WT virus, WA1/2020); experiment: Virus replication in Vero-E6 cells, alamar blue viability readout; type: cell-based; conditions: read-out: EC50 against virus replication
[3] = Male hamster pharmacokinetic study, plasma and lung; conditions: ip, 10 mg/kg
Protocol: (§1) The compound was administered as a single dose at 10 mg/kg via intraperitoneal injection formulated in 10% DMSO/10% Solutol® HS15/PBS at 2 mg/mL (FIG. 7).

SARS-CoV-2 WT (WA1/2020) = experiment: Virus replication in Vero-E6 cells, nucleocapsid immunostaining and high-content imaging, WT; type: cell-based; conditions: for EC50: WT (WA1/2020), 150× TCID50, 48 h, high-content imaging, read-out: EC50 against virus replication
[4] = test system: SARS-CoV-2 Beta (B.1.351); experiment: Virus replication in Vero-E6 cells, nucleocapsid immunostaining and high-content imaging, Beta; type: cell-based
[5] = test system: SARS-CoV-2 Delta (B.1.617); experiment: Virus replication in Vero-E6 cells, nucleocapsid immunostaining and high-content imaging, Delta; type: cell-based; conditions: for EC50: read-out: EC50 against virus replication
[6] = hamster, in vivo, ip, 10 mg/kg
Protocol: as §1

[7] = test system: SARS-CoV-2 Omicron (B.1.1.529); experiment: Virus replication in Vero-E6 cells, nucleocapsid immunostaining and high-content imaging, Omicron; type: cell-based; conditions: read-out: EC50 against virus replication
[8] = Severe acute respiratory syndrome coronavirus 2, Vero C1008, 96 h, WT (WA1/2020), 96 h, alamar blue viability
[9] = WT (WA1/2020), 96 h, alamar blue viability
[10] = Severe acute respiratory syndrome coronavirus 2, Vero C1008, 48 h

cathepsin L, sequence (P07711 114-333): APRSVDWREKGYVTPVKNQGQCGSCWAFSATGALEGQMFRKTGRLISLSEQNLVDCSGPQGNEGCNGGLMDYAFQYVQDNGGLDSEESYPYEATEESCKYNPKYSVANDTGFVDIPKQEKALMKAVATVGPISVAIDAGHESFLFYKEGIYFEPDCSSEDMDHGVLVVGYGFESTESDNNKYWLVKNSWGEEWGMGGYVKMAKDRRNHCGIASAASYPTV

SMILES	half-life [1] [min]	IC50 (cathepsin B; read-out: CatB IC50) [nM]	IC50 (cathepsin L; read-out: CatL IC50) [nM]	incubation time to achieve maximum inhibition (SARS-CoV-2 Mpro) [min]	IC50 (thrombin) [nM]	EC50 [2, 8] [nM]	EC50 [2, 9] [nM]	further results
COc1cccc2[nH]c(C(=O)N[C@@H](CC(C)C)C(=O)N[C@@H](C[C@@H]3CCNC3=O)C(=O)COC(=O)c3c(Cl)cccc3Cl)cc12 [AP-8-001, reference compound]	< 2	24 ± 7.5	1.8 ± 0.27	≤ 10	> 10000	1970		IC50 (SARS-CoV-2 Mpro): 11 nM
O=C(CN1C(=O)[C@@H](NC(=O)c2ccccc2)COc2ccccc21)N[C@@H](C[C@@H]1CCNC1=O)C(=O)COC(=O)c1c(Cl)cccc1Cl [AP-8-011, (S)-3-(2-((S)-3-benzamido-4-oxo-3,4-dihydrobenzo[b][1,4]oxazepin-5(2H)-yl)acetamido)-2-oxo-4-((S)-2-oxopyrrolidin-3-yl)butyl 2,6-dichlorobenzoate]	< 2	13000	> 32000		> 32000			
O=C(CN1C(=O)[C@@H](NC(=O)OCc2ccccc2)COc2ccccc21)N[C@@H](C[C@@H]1CCNC1=O)C(=O)COC(=O)c1c(Cl)cccc1Cl [AP-8-013, (S)-3-(2-((S)-3-(benzyloxycarbonylamino)-4-oxo-3,4-dihydrobenzo[b][1,4]oxazepin-5(2H)-yl)acetamido)-2-oxo-4-((S)-2-oxopyrrolidin-3-yl)butyl 2,6-dichlorobenzoate]	< 2	18000	> 32000	60 to 120	> 32000	< 10000	7250	IC50 (cathepsin B; read-out: Cathepsin B IC50): > 15000 nM; IC50 (cathepsin L; read-out: Cathepsin L IC50): > 15000 nM; Kp [3]: 3.2; reducing viral load (percent infected live cells) (SARS-CoV-2 WT (WA1/2020); WT (USA-WA1/2020), 50× TCID50, 48 h, FIG. 6): effective; reducing viral load (percent infected live cells) [4]: effective; reducing viral load (percent infected live cells) [5]: effective; clinical symptoms during the in-life phase [6]: no abnormal clinical symptoms; lung concentration achieved ([6]; male): about 8 μM
N[C@H]1COc2ccccc2N(CC(=O)N[C@@H](C[C@@H]2CCNC2=O)C(=O)COC(=O)c2c(Cl)cccc2Cl)C1=O.O=C(O)C(F)(F)F [AP-9-055, (S)-3-(2-((S)-3-amino-4-oxo-3,4-dihydrobenzo[b][1,4]oxazepin-5(2H)-yl)acetamido)-2-oxo-4-((S)-2-oxopyrrolidin-3-yl)butyl 2,6-dichlorobenzoate 2,2,2-trifluoroacetate]	< 2							
CC(C)C[C@H](NC(=O)OCc1ccccc1)C(=O)N[C@@H](C[C@@H]1CCNC1=O)C(O)S(=O)(=O)O (stereo partly drawn) [GC-376]								EC50 (SARS-CoV-2 WT (WA1/2020); [10]): 270 nM; EC50 [7, 10]: 360 nM; EC50 ([4]; Severe acute respiratory syndrome coronavirus 2, Vero C1008, 48 h, read-out: EC50 against virus replication): 290 nM; EC50 [5, 10]: 640 nM; EC50 ([2]; Severe acute respiratory syndrome coronavirus 2, Vero C1008, 96 h): 2050 nM
CC(C)(C)[C@H](NC(=O)C(F)(F)F)C(=O)N1C[C@H]2[C@@H]([C@H]1C(=O)N[C@H](C#N)C[C@@H]1CCNC1=O)C2(C)C [PF07321332]							1570	EC50 (SARS-CoV-2 WT (WA1/2020)): 380 nM; EC50 [7]: 440 nM; EC50 [5]: 330 nM
